Measurements taken from patent US20240366594A1, “Small Molecule Inhibitors of Formation of Neutrophil-Derived Extracellular Traps (NETosis) and Uses Thereof” (The Brigham and Women's Hospital, Inc., priority 2021, published 2024).

Test system: poly(I:C)-treated mice
Assay: Poly(I:C) pulmonary NET induction, mouse model of RNA viral lung infection
Type: in vivo
Conditions: for NET induction (CitH3 and MPO-DNA complexes in BALF and lung tissue): ELISA, FIGS. 2E-2H; for neutrophils in the BALF and in the lung: compared with poly(I:C) only, FIGS. 6D-6F; for neutrophil levels in the blood: cytofluorimetry, FIGS. 6B and 6C; for morbidity, measured as temperature drop / lung permeability (albumin content in BALF) / lung functionality (airway hyperreactivity to methacholine): ricolinostat 30 mg/kg/dose or GSK484 25 mg/kg/dose i.p., vs poly(I:C) only; for morbidity, measured as temperature drop: FIG. 2B; for lung permeability (albumin content in BALF): FIG. 2C; for lung functionality (airway hyperreactivity to methacholine): FIG. 2D
Method: Mice were intratracheally treated with 2.5 mg/kg poly(I:C) or saline daily for 4 days and euthanized 18 h post the last poly(I:C) instillation. Ricolinostat (30 mg/kg/dose) or GSK484 (25/mg/kg/dose) was administered intraperitoneally at day 2, day 4, and 3 h before the endpoint. • (B) Body temperature measurements at the endpoint. • (C) Lung permeability was measured as albumin content level in the BALF (n=5). • (D) Measure of airway hyperreactivity (AHR) in the indicated groups in response to increasing concentration of methacholine. RI, responsiveness index. • (E-H) CitH3 and MPO-DNA levels were analyzed by ELISA in BALFs (E, F) and in lungs (G, H) of mice treated as indicated. The saline group represents mice that received saline instead of poly(I:C). NT group represents mice that were challenged with poly(I:C) without receiving any drug. Statistics were calculated using one-way ANOVA (B, C, E-H) and two-way ANOVA with Tukey's analysis (D) (*p<0.05; **p<0.01; ***p<0.001; ****p<0.0001. n.s., not significant). n=10 (B, D) and 15 (E-H) for each group except for the GSK484-treated group (n=5). Gray stars represent comparison of all experimental groups with the saline-treated control. Black stars represent comparison between drug-treated groups and mice treated with poly(I:C) alone. Violin plots represent median (dashed line) with quartiles (dotted line). See also FIGS. 6A-F.
Nuclei are stained with DAPI (blue), and anti-neutrophils antibody (red). Scale bar=100 μm. • B-F) Neutrophils numbers and percentage were calculated in blood (B, C), BALFs (D, E), and lung tissues (F) of mice challenged, or not, with poly(I:C). The saline group represents mice that received saline instead of poly (I:C). NT group represent mice that were challenged with poly (I:C) without receiving any drug. Ricolinostat (30 mg/kg/dose) or GSK484 (25 mg/kg/dose) were administered intraperitoneally at day 2, day 4 and 3 h prior the endpoint. Violin plots represent median (dashed line) with quartiles (dotted line). Statistics were calculated using One-way ANOVA (*P<0.05; **P<0.01; ***P<0.001; ****P<0.0001; n.s., not significant). Grey stars represent comparison of all experimental groups with the saline control. Black stars represent comparison of drug treated groups with NT group.
NETosis was measured in bronco-alveolar lavage fluid or lung tissue homogenates as quantity of citrullinated histone H3 with Citrullinated histone H3 ELISA kit (Cayman) and as quantity of myeloperoxidase (MPO)-DNA complexes by using a modified Cell Death Detection ELISA (Roche). Briefly, anti-myeloperoxidase antibody (ThermoFisher) was used to coat a high-binding 96 multi-well plate overnight at 4° C. Following a 1 h blocking with 2% BSA/PBS solution, samples were added for an overnight incubation at 4° C. Finally, DNA was detected with Cell Death Detection kit according to manufacture instruction. Absorbance was measured at 405 nm and MPO-DNA complex levels were quantified as normalized relative to saline.
6-8 weeks-old female mice were treated daily with 2.5 mg/kg of poly (I:C) for 4 days and euthanized 18 hours post the last poly(I:C) intra-tracheal instillation, as previously described (Broggi et al., 2020). Temperatures were monitored with a rectal probe. NETosis was measured in bronco-alveolar lavage fluid and lung homogenates as quantity of citrullinated histone H3 and quantity of MPO-DNA complexes. Ricolinostat (30 mg/kg/dose) and GSK484 (25 mg/kg/dose) were administered intraperitoneally at day 2, day 4 and 3 hours prior the end point.

COc1cc(C(=O)N2CC[C@@H](O)[C@@H](N)C2)cc2nc(-c3cc4ccccc4n3CC3CC3)n(C)c12 [GSK484]
NET induction (CitH3 and MPO-DNA complexes in BALF and lung tissue): abrogated | neutrophils in the BALF and in the lung: trend of accumulation | neutrophil levels in the blood: did not change significantly | morbidity, measured as temperature drop: significantly reduced | lung permeability (albumin content in BALF): significantly preserved | lung functionality (airway hyperreactivity to methacholine): significantly preserved

O=C(CCCCCCNC(=O)c1cnc(N(c2ccccc2)c2ccccc2)nc1)NO [ricolinostat]
NET induction (CitH3 and MPO-DNA complexes in BALF and lung tissue): abrogated | neutrophils in the BALF and in the lung: trend of accumulation | neutrophil levels in the blood: did not change significantly | activity compared with GSK484 in all the conditions tested (outcompeted i.e. increased survival of neutrophils in the BALF): phenocopied, and in some cases outcompeted | morbidity, measured as temperature drop: significantly reduced | lung permeability (albumin content in BALF): significantly preserved | lung functionality (airway hyperreactivity to methacholine): significantly preserved
